The source of these data is ChEMBL document CHEMBL1777693, “New halogenated phenylcoumarins as tyrosinase inhibitors” (Bioorg Med Chem Lett, 2011).

The target of one experiment is T1, Tyrosinase (Agaricus bisporus, UniProt O42713).
T1 sequence (O42713 whole entry): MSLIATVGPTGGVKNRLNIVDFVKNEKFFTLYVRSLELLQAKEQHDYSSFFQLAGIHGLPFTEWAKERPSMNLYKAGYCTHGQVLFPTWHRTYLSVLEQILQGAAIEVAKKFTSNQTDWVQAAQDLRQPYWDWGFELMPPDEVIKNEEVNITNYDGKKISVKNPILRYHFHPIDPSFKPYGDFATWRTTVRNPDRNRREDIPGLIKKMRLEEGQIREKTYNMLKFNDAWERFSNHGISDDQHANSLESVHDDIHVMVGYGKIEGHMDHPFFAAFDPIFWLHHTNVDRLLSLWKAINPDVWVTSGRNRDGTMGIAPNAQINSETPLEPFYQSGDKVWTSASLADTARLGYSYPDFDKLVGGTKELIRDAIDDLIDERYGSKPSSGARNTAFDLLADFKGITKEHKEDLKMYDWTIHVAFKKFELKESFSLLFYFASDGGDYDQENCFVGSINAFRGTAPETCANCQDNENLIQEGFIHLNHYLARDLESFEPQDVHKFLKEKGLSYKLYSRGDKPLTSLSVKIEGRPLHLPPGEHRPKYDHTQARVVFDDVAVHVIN
The experiment is described as follows: Inhibition of mushroom tyrosinase using L-3,4- dihydroxyphenylalanine as substrate measured for 5 mins by spectrophotometric analysis.
As for `COc1cc(Br)cc2cc(-c3ccccc3)c(=O)oc12`, the IC50 was more than 5 mM.
Consider `CCOc1cccc2cc(-c3ccccc3)c(=O)oc12`, for which the IC50 stood at 2.07 mM.
`CCOc1cccc2cc(-c3ccc(OC)cc3)c(=O)oc12` gave an IC50 of more than 5 mM.
With `COc1ccc(-c2cc3cc(Br)cc(OC)c3oc2=O)cc1`, inhibition was half-maximal at 1.36 mM (IC50).
`O=c1oc2c(O)cccc2cc1-c1ccccc1`: the IC50 is more than 5 mM.
On the same count and under the same terms, then `O=c1oc2c(O)cc(Br)cc2cc1-c1ccccc1`, with 0.302 mM; and `O=c1oc2c(O)cccc2cc1-c1ccc(O)cc1`, with 1.3 mM.
In the case of `O=c1oc2c(O)cc(Br)cc2cc1-c1ccc(O)cc1`, the IC50 was 0.215 mM.

The next experiment addresses T1, Tyrosinase. The experiment is described as follows: Non-competitive inhibition of mushroom tyrosinase using L-3,4- dihydroxyphenylalanine as substrate by Lineweaver-Burk double reciprocal plot analysis.
`O=c1oc2c(O)cc(Br)cc2cc1-c1ccc(O)cc1`: the Ki came out at 189 µM.

For a further experiment, the target named is T2, Tyrosinase (Homo sapiens, UniProt P14679).
T2 sequence (P14679 whole entry): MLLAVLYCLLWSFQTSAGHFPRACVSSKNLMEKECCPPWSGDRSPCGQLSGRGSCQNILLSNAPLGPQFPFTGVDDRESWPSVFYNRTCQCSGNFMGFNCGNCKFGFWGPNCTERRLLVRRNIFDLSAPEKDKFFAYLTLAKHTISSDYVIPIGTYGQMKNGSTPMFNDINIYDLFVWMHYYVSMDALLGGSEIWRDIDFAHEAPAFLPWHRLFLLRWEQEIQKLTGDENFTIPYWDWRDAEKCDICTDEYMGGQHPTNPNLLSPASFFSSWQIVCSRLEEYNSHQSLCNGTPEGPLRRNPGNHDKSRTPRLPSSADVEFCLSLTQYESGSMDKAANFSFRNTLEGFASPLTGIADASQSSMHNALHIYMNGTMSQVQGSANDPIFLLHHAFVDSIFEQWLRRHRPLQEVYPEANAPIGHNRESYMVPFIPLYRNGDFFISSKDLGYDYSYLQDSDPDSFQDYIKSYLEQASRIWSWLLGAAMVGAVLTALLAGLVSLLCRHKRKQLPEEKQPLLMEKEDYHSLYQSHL
Put plainly: Inhibition of tyrosinase.
Turning to `O=c1oc2cc(O)ccc2cc1-c1ccccc1`, the IC50 was more than 10 mM.
Take `O=c1oc2cc(O)ccc2cc1-c1cc(O)cc(O)c1`: the IC50 is more than 10 mM.
Same read-out and setting: then `Oc1ccc(/C=C/c2cc(O)cc(O)c2)cc1` [RESVERATROL], with 3.68 mM.
The same measure, in the same setting: then `O=c1ccc2ccc(O)cc2o1` [UMBELLIFERONE], with 0.42 mM.

The IC50 is the midpoint of a concentration-inhibition curve. High values mean weaker potency in that assay, low ones greater potency in that assay. The Ki is the dissociation constant of the complex between target and ligand, obtained from inhibition or displacement. Read a low Ki as higher affinity.
